Laboratory results published in US4956367A, “2-amino-4-morpholino-6-propyl-1,3,5-triazines” (U C B S.A., priority 1988, dated 1990).

Legend:
[1] = tested on: tremogenic effect of oxotremorine; assay: Potentiation of the cholinergic effects of oxotremorine: tremogenic (central) effect; format: in vivo, male NMRI mice; conditions: mice
Protocol: (§1) 1. Potentiation of the cholinergic effects of oxotremorine. […] The degree of peripheral cholinergic activation is measured by the salivatory effect quantified by the following rating system:
The degree of central cholinergic activation is measured by the tremogenic effect quantified by the following rating system:
score 1: slight and periodic occasional tremors;
score 2: moderate and slight tremors often repeated;
score 4: accentuated tremors, but interrupted by periods of calm:
score 6: very accentuated and almost continuous tremors.
(§2) Male NMRI mice (20 to 25 g) are divided into four groups of five animals, that is to say: one control group and three treated groups. The compound to be tested is administered intraperitoneally (to the three treated groups) 20 minutes before the administration of the oxotremorine, at a dose which differs for each of the treated groups. […] For each of the groups, the individual scores recorded at each observation period are summed; this enables to plot a curve showing the sum of the scores as a function of time, which is characteristic for each group.
(§3) The mean values of the areas under the curves obtained for each of the treated groups are compared with the mean value of the area under the curve corresponding to the control group and is subjected to statistical analysis by the Mann-Whitney method. From this comparison, a "minimum active dose" can be determined. […]

[2] = tested on: salivatory effect of oxotremorine; assay: Potentiation of the cholinergic effects of oxotremorine: salivatory (peripheral) effect; format: in vivo, male NMRI mice; conditions: mice
Protocol: as §1
score 1: a little saliva is found around the teeth:
score 2: the saliva forms a narrower band around the mouth;
score 4: the saliva wets a surface underneath the chin;
score 6: the saliva runs from the mouth, for example onto the forelegs.
The intermediate scores are not used, and the saliva is wiped away after each observation.
as §2, §3

[3] = tested on: effects of scopolamine on the band from 6.4 to 9.6 Hz in the EEG; assay: Inhibition of the effects of scopolamine on the electroencephalogram (EEG); format: in vivo, male albino Sprague-Dawley rats; set-up: inhibition: dose or concentration left out as unconfirmed
Protocol: Male albino Sprague-Dawley SPF rats (160 to 200 g) are used in this test. When the animals are 3 months old, 5 cortical electrodes are implanted permanently, aseptically and under a general anesthesia: one inert electrode, one left and one right frontal electrode, and one left and one right occipital electrode (P. ETEVENON, loc.cit.). The test is carried out when the animals are about 15 months old. In the meantime, the animals are kept in individual cages. They are given water and food ad libitum and are subjected to a regular daily cycle comprising a period of darkness between 6 o'clock in the evening and 6 o'clock in the morning. At the same time, the animals are progressively acclimatized to the cages of the sound-proof cabin which they will subsequently occupy for recording of the electroencephalograms, as well as to the experimental conditions, by intraperitoneal administration of placebo. The products are administered immediately before the EEG is recorded. The rats are divided into groups of 8 animals and 16 samples of the EEG spectra are recorded over 5 seconds (two EEG spectra per animal). The spectra obtained are then analyzed by computer (rapid Fourier transform), which enables the average of the 16 measurements performed to be determined for each group and the overall intensity of the EEG spectrum and the distribution of this intensity (in %) in the various frequency bands to be deduced for each animal. This operation (recording of the spectra) is repeated 9 times (total

[4] = tested on: hyperactivity induced by scopolamine; assay: Inhibition of hyperactivity induced by scopolamine; format: in vivo, male Sprague-Dawley rats; conditions: rats, administered more than 15 minutes before the measurements
[5] = tested on: amnesia induced by scopolamine; assay: Multiple-trial passive avoidance: mnemic retention, amnesia induced by scopolamine; format: in vivo, male Sprague-Dawley rats; conditions: rats
Protocol: 4. Multiple-trial passive avoidance. The compounds of the present invention have been studied with the aim of
Columns 3 and 4 show the results obtained in the test used to evaluate the learning. The figures indicate the average number of trials needed for a control animal (group 1) or an animal treated (group 2) with the compound to learn to remain on the rubber mat for 180 seconds in order to avoid the electric shock. The results were analyzed by the Student test.

[6] = 20 minutes after administration at the minimum active dose

SMILES: COC(=O)C1=CCCN(C)C1 [arecoline, methyl 1,2,5,6-tetrahydro-1-methyl-3-pyridinecarboxylate]
- potentiation of the tremogenic effect of oxotremorine 20 minutes after administration [1, 6]: gives no potentiation
- potentiation of the salivatory effect of oxotremorine 20 minutes after administration [2, 6]: gives no potentiation

SMILES: O=C1CCCN1CC#CCN1CCCC1 [oxotremorine]
- minimal effective dose ([1]; Mus musculus, ip, intraperitoneal, read-out: minimum dose of oxotremorine which causes tremors): ~0.05 mg/kg
- minimal effective dose ([2]; Mus musculus, ip, intraperitoneal, read-out: minimum dose of oxotremorine which causes salivation): ~0.05 mg/kg

SMILES: CNC(=O)Oc1ccc2c(c1)[C@]1(C)CCN(C)[C@@H]1N2C [physostigmine, reference compound]
- inhibition ([3]; Rattus norvegicus, ip, read-out: Inhibition (percentage of reduction in the increase in the intensity of the band from 6.4 to 9.6 Hz)): 76.8%
- inhibition of the effects which scopolamine exerts on the electroencephalogram ([3]; rats, i.p.): inhibit the effects which scopolamine exerts on the electroencephalogram
- inhibitory activity on scopolamine hyperactivity, administered more than 15 minutes before measurements [4]: inactive
- influence on the amnesing effect of scopolamine ([5]; i.p., group 4 vs. group 3): favorable action against the amnesing effect of scopolamine, similar to that of the compounds of the invention

SMILES: CN1[C@@H]2C[C@@H](OC(=O)[C@H](CO)c3ccccc3)C[C@H]1[C@@H]1O[C@@H]12 [scopolamine]
- amnesing effect ([5]; group 3, scopolamine alone): very pronounced
